Experimental data reported in patent publication EP4635500A1, “THERAPEUTIC AGENT FOR BACTERIAL INFECTION” (Sumitomo Pharma Co., Ltd., priority 2022, dated 2024).
Values after ≈ are worked out from the molar mass of the structure shown. Like-named read-outs stand apart in the source and are kept apart here.

Assays:
Type in all cases: cell-based
Gram-positive bacteria = assay: MIC, agar dilution, anaerobic bacteria (Example 9, Tables 21, 26)
Porphyromonas spp. = assay: MIC, agar dilution, anaerobic bacteria (Example 9, Tables 19, 24); settings: for MIC: (n)=Compound A µg/mL, 0=Compound A alone antibacterial
Fusobacterium spp. = assay: MIC, agar dilution, anaerobic bacteria (Example 9, Tables 20, 25)
[1] = tested on: Serine-carbapenemase producing strains (N = 19); assay: MIC50/MIC90 for carbapenemase-producing isolates (Example 5, Table 6); set-up: unit not given here; settings: Serine-carbapenemase (N = 19): KPC-2 (7), KPC-3 (8), KPC-38 (1), OXA-48 (2), OXA-181 (1)

With `Cc1ncc([N+](=O)[O-])n1CCO` [Metronidazole] as the compound, how does the MIC (Gram-positive bacteria; ATCC43255, KUB No. 3518 Clostridioides difficile ATCC 43255, read-out: MIC) read?
Its MIC is 0.5 µg/mL (≈ 2.92 µM).

And the MIC (Gram-positive bacteria; ATCC700057, KUB No. 2978 Clostridioides difficile ATCC 700057, read-out: MIC)?
Its MIC is 0.5 µg/mL (≈ 2.92 µM).

What about the MIC (Gram-positive bacteria; ATCCBAA1803, KUB No. 3511 Clostridioides difficile ATCC BAA-1803, read-out: MIC) of the same compound?
Its MIC is 1 µg/mL (≈ 5.84 µM).

What about the MIC (Gram-positive bacteria; ATCCBAA1870, KUB No. 3385 Clostridioides difficile ATCC BAA-1870, read-out: MIC) of the same compound?
Its MIC is 0.5 µg/mL (≈ 2.92 µM).

What about the MIC (Gram-positive bacteria; Cutibacterium acnes, ATCC11827) of the same compound?
Its MIC is greater than 64 µg/mL.

What about the MIC (Gram-positive bacteria; Finegoldia magna, ATCC29328) of the same compound?
Its MIC is 1 µg/mL (≈ 5.84 µM).

What about the MIC50 (Gram-positive bacteria; Gram-positive bacteria, read-out: MIC50) of the same compound?
The MIC50 was 0.5 µg/mL (≈ 2.92 µM).

What about the MIC90 (Gram-positive bacteria; Gram-positive bacteria, read-out: MIC90) of the same compound?
The MIC90 was 2 µg/mL (≈ 11.7 µM).

What about the MIC (Gram-positive bacteria; KUB No. 3013 Bulleidia extructa, read-out: MIC) of the same compound?
The MIC was 2 µg/mL (≈ 11.7 µM).

What about the MIC (Gram-positive bacteria; KUB No. 3014 Atropobium rimae, read-out: MIC) of the same compound?
The MIC was 2 µg/mL (≈ 11.7 µM).

And the MIC (Gram-positive bacteria; Olsenella uli)?
The MIC was 2 µg/mL (≈ 11.7 µM).

And the MIC (Gram-positive bacteria; Peptoniphilus asaccharolyticus, ATCC14963)?
Its MIC is 0.5 µg/mL (≈ 2.92 µM).

And the MIC (Gram-positive bacteria; Peptoniphilus indolicus)?
The MIC was 0.25 µg/mL (≈ 1.46 µM).

What about the MIC (Gram-positive bacteria; Peptostreptococcus anaerobius) of the same compound?
Its MIC is 0.5 µg/mL (≈ 2.92 µM).

What about the MIC (Gram-positive bacteria; Schaalia odontolytica, ATCC17929, KUB No. 3488 Actinomyces odontolyticus ATCC 17929, read-out: MIC) of the same compound?
The MIC was 32 µg/mL (≈ 187 µM).

And the MIC (Porphyromonas spp.; KUB No. 6663 Porphyromonas gingivalis)?
The MIC was no more than 0.12 µg/mL.

And the MIC (Porphyromonas spp.; KUB No. 6666 Porphyromonas gingivalis)?
Its MIC is no more than 0.12 µg/mL.

And the MIC (Porphyromonas spp.; KUB No. 6667 Porphyromonas gingivalis)?
Its MIC is no more than 0.12 µg/mL.

And the MIC (Porphyromonas spp.; KUB No. 6668 Porphyromonas gingivalis)?
Its MIC is no more than 0.12 µg/mL.

What about the MIC (Porphyromonas spp.; KUB No. 6669 Porphyromonas gingivalis) of the same compound?
The MIC was no more than 0.12 µg/mL.

What about the MIC (Porphyromonas spp.; KUB No. 6670 Porphyromonas gingivalis) of the same compound?
The MIC was no more than 0.12 µg/mL.

And the MIC (Porphyromonas spp.; KUB No. 6671 Porphyromonas gingivalis)?
The MIC was no more than 0.12 µg/mL.

What about the MIC (Porphyromonas spp.; KUB No. 6672 Porphyromonas gingivalis) of the same compound?
Its MIC is no more than 0.12 µg/mL.

What about the MIC (Porphyromonas spp.; KUB No. 6673 Porphyromonas gingivalis) of the same compound?
The MIC was no more than 0.12 µg/mL.

And the MIC (Porphyromonas spp.; KUB No. 6674 Porphyromonas gingivalis)?
The MIC was no more than 0.12 µg/mL.

And the MIC (Porphyromonas spp.; KUB No. 6676 Porphyromonas gingivalis)?
The MIC was no more than 0.12 µg/mL.

And the MIC (Porphyromonas spp.; KUB No. 6677 Porphyromonas gingivalis)?
Its MIC is no more than 0.12 µg/mL.

What about the MIC (Porphyromonas spp.; KUB No. 6678 Porphyromonas gingivalis) of the same compound?
Its MIC is no more than 0.12 µg/mL.

What about the MIC (Porphyromonas spp.; KUB No. 6679 Porphyromonas gingivalis) of the same compound?
The MIC was no more than 0.12 µg/mL.

And the MIC (Porphyromonas spp.; KUB No. 6680 Porphyromonas gingivalis)?
The MIC was no more than 0.12 µg/mL.

What about the MIC (Porphyromonas spp.; KUB No. 6681 Porphyromonas gingivalis) of the same compound?
Its MIC is no more than 0.12 µg/mL.

And the MIC (Porphyromonas spp.; KUB No. 6682 Porphyromonas gingivalis)?
Its MIC is no more than 0.12 µg/mL.

What about the MIC (Porphyromonas spp.; KUB No. 6683 Porphyromonas gingivalis) of the same compound?
The MIC was no more than 0.12 µg/mL.

What about the MIC (Porphyromonas spp.; KUB No. 6684 Porphyromonas gingivalis) of the same compound?
The MIC was no more than 0.12 µg/mL.

What about the MIC (Porphyromonas spp.; KUB No. 6685 Porphyromonas gingivalis) of the same compound?
The MIC was no more than 0.12 µg/mL.

What about the MIC (Porphyromonas spp.; KUB No. 6686 Porphyromonas gingivalis) of the same compound?
The MIC was no more than 0.12 µg/mL.

And the MIC (Porphyromonas spp.; KUB No. 6687 Porphyromonas gingivalis)?
The MIC was no more than 0.12 µg/mL.

And the MIC (Porphyromonas spp.; KUB No. 6688 Porphyromonas gingivalis)?
The MIC was no more than 0.12 µg/mL.

What about the MIC (Porphyromonas spp.; Porphyromonas, KUB No. 6665 Porphyromonas assaccharolytica) of the same compound?
The MIC was no more than 0.12 µg/mL.

What about the MIC50 (Porphyromonas spp.; Porphyromonas, table at the place of Table 24, Prevotella spp., read-out: MIC50) of the same compound?
Its MIC50 is no more than 0.12 µg/mL.

And the MIC90 (Porphyromonas spp.; Porphyromonas, table at the place of Table 24, Prevotella spp., read-out: MIC90)?
The MIC90 was no more than 0.12 µg/mL.

What about the MICrange (Porphyromonas spp.; table at the place of Table 24, Prevotella spp.) of the same compound?
The MICrange was no more than 0.12 µg/mL.

And the MIC50 (Fusobacterium spp.; Fusobacterium spp.)?
Its MIC50 is no more than 0.12 µg/mL.

And the MICrange (Fusobacterium spp.; Fusobacterium spp.)?
The MICrange was no more than 0.12 to 0.5 µg/mL.

What about the MIC90 (Fusobacterium spp.; Fusobacterium, Fusobacterium spp.) of the same compound?
Its MIC90 is 0.25 µg/mL (≈ 1.46 µM).

And the MIC (Fusobacterium spp.; Fusobacterium, KUB No. 6692 Fusobacterium sp.)?
The MIC was no more than 0.12 µg/mL.

What about the MIC (Fusobacterium spp.; Fusobacterium, KUB No. 6693 Fusobacterium nucleatium) of the same compound?
The MIC was 0.25 µg/mL (≈ 1.46 µM).

And the MIC (Fusobacterium spp.; Fusobacterium, KUB No. 6708 Fusobacterium necrophorun)?
The MIC was no more than 0.12 µg/mL.

And the MIC (Fusobacterium spp.; Fusobacterium, KUB No. 6715 Fusobacterium sp.)?
The MIC was no more than 0.12 µg/mL.

What about the MIC (Fusobacterium spp.; Fusobacterium, KUB No. 6716 Fusobacterium nuncleatum) of the same compound?
The MIC was no more than 0.12 µg/mL.

And the MIC (Fusobacterium spp.; Fusobacterium, KUB No. 6719 Fusobacterium sp.)?
The MIC was no more than 0.12 µg/mL.

And the MIC (Fusobacterium spp.; Fusobacterium, KUB No. 6725 Fusobacterium sp.)?
Its MIC is no more than 0.12 µg/mL.

What about the MIC (Fusobacterium spp.; KUB No. 2741 Fusobacterium varium ATCC 27725) of the same compound?
The MIC was 0.25 µg/mL (≈ 1.46 µM).

And the MIC (Fusobacterium spp.; KUB No. 2742 Fusobacterium nucleatum ATCC 25586)?
Its MIC is no more than 0.12 µg/mL.

And the MIC (Fusobacterium spp.; KUB No. 6694 Fusobacterium necrophorum)?
Its MIC is no more than 0.12 µg/mL.

And the MIC (Fusobacterium spp.; KUB No. 6695 Fusobacterium necrophorum)?
The MIC was 0.5 µg/mL (≈ 2.92 µM).

And the MIC (Fusobacterium spp.; KUB No. 6696 Fusobacterium necrophorum)?
The MIC was no more than 0.12 µg/mL.

And the MIC (Fusobacterium spp.; KUB No. 6697 Fusobacterium nucleatum)?
Its MIC is no more than 0.12 µg/mL.

And the MIC (Fusobacterium spp.; KUB No. 6698 Fusobacterium nucleatum)?
Its MIC is no more than 0.12 µg/mL.

What about the MIC (Fusobacterium spp.; KUB No. 6699 Fusobacterium necrophorum) of the same compound?
The MIC was no more than 0.12 µg/mL.

What about the MIC (Fusobacterium spp.; KUB No. 6700 Fusobacterium nucleatum) of the same compound?
The MIC was no more than 0.12 µg/mL.

And the MIC (Fusobacterium spp.; KUB No. 6702 Fusobacterium necrophorum)?
The MIC was 0.25 µg/mL (≈ 1.46 µM).

And the MIC (Fusobacterium spp.; KUB No. 6710 Fusobacterium necrophorum)?
The MIC was 0.25 µg/mL (≈ 1.46 µM).

And the MIC (Fusobacterium spp.; KUB No. 6720 Fusobacterium nucleatum)?
Its MIC is no more than 0.12 µg/mL.

What about the MIC (Fusobacterium spp.; KUB No. 6724 Fusobacterium nucleatum) of the same compound?
The MIC was no more than 0.12 µg/mL.

Which MIC50 [1] does the source give for colistin here?
Its MIC50 is 0.25.

And the MIC90 [1]?
Its MIC90 is 2.
